This note sets out measurements from US20050112701A1, “Test system for the identification of APJ receptor ligands” (Aventis Pharma Deutschland GmbH, priority 2003, published 2005).

Format in all cases: cell-based
The target in assay [1] is T1, APJ receptor (Homo sapiens, UniProt P35414).
T1 sequence (P35414 1-380): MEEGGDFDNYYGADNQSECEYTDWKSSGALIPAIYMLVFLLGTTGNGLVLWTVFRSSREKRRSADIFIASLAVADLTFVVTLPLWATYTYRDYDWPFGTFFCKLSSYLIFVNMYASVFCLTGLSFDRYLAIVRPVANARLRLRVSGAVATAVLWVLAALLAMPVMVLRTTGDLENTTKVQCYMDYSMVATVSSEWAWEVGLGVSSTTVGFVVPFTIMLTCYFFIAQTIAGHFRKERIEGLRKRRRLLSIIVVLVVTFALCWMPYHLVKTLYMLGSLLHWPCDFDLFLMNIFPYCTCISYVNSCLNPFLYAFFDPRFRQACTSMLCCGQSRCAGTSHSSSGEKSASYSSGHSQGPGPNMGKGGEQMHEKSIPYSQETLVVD
Nature of the assay: FLIPR calcium assay in CHO cells transiently cotransfected with APJ receptor and G protein α subunits (FIG. 3). Set-up: expressed in transfected cells; host or cells: CHO (Chinese hamster ovary), transient. Particulars: 1 μmol/l peptide; CHO cells cotransfected with APJ and α16 or αΔ6qi4myr; response required chimeric/promiscuous Gα subunit. The text has this:
The APJ receptor was transiently cotransfected in CHO cells (Chinese hamster ovary cells) with vector DNA as a control (white column) or the G protein α subunits α16 (black column) and αΔ6qi4myr (striped column) according to methods known to the one skilled in the art. […] Data presented are mean values (fluorescence intensity units, FIU) from 2 individual experiments performed in duplicate.
(§1) The FLIPR calcium assay provides a suitable method for detecting changes in intracellular calcium concentration. It is a fluorescence-based assay which was performed according to the manufacture's instructions (Molecular Devices, CA, USA). Briefly summarized, cells were seeded on 96- or 384-well plates Loading Buffer was added to the cells and plates incubated for 1 hour at 37° C. After incubation cells were stimulated with the prevailing APJ receptor ligand or none. Thereafter intracellular calcium concentration was measured in the FLIPR according to the FLIPR system manual.

Assay [2] has as its target T1, APJ receptor. Nature of the assay: FLIPR calcium assay in stably transfected HEK 293 cells overexpressing G protein and APJ receptor (FIG. 4). Particulars: 50 nmol/l, 200 nmol/l, 1 μmol/l; HEK 293 stably cotransfected with G protein and APJ; response required APJ receptor. Set-up: expressed in transfected cells; host or cells: HEK 293. On the procedure:
Data presented are mean values (fluorescence intensity units, FIU) from 2 individual experiments performed in duplicate.
as §1

The target in assay [3] is T1, APJ receptor. Nature of the assay: FLIPR calcium assay, EC50 of apelin peptides in HEK293-PSCi4qi4-APJ cells. Set-up: expressed in transfected cells; host or cells: HEK293-PSCi4qi4 (HEK 293 stably expressing Gαi4qi4). Particulars: intracellular calcium. How it is done: as §1

Ends that are not written are not given here.

For the compound `CSCC[C@H](NC(=O)[C@@H]1CCCN1C(=O)CNC(=O)[C@H](CCCCN)NC(=O)[C@H](Cc1c[nH]cn1)NC(=O)[C@H](CO)NC(=O)[C@H](CC(C)C)NC(=O)[C@H](CCCNC(=N)N)NC(=O)[C@@H]1CCCN1C(=O)[C@@H](N)CCCNC(=N)N)C(=O)N1CCC[C@H]1C(=O)N[C@@H](Cc1ccccc1)C(=O)O` [Apelin-12], in assay [1], the “intracellular calcium release via the APJ receptor” value is “induced intracellular calcium release”.

As usually defined, the EC50 is the concentration at which the effect is half-maximal. Take “LVQPRGSRNGPGPWQGGRRKFRRQRPRLSHKGPMPF [Apelin-36]”: the “intracellular calcium release via the APJ receptor” value in assay [2] was “induced intracellular calcium release via the APJ receptor in a dose-dependent manner”; in assay [1] it was “induced intracellular calcium release”. Moreover, the figures for the EC50 in assay [3] (first of two independent measurements) and in assay [3] (second of two independent measurements) were 51 nM and 27 nM, respectively.
